Reference: PubChem BioAssay AID1963970 (Molecular Pharmacology Branch, DTP, NCI, 2024)

Test system: 931267-113-T-J1-PDC multicell spheroid viability
Test: Anticancer human tumor 931267-113-T-J1-PDC patient-derived colon adenocarcinoma cell line growth inhibition [PI3K]
Settings: for IC50: curve of first compound; for viability, T/C: stronger effect = lower value
Summary of the method: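 High-throughput combination screen: PI3K inhibitors crossed with targeted small molecules on complex spheroids of tumor cells, HUVEC and MSCs at 37 degrees C, 5% CO2. Top concentration was at or near clinical Cmax (otherwise 10 microM), with half-log decrements.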

[1] = second compound 0.0316 µM, first compound 0.0316 µM
[2] = second compound 0.0316 µM, first compound 0.1 µM
[3] = second compound 0.0316 µM, first compound 0.316 µM
[4] = second compound 0.0316 µM, first compound 1 µM
[5] = second compound 0.0316 µM, first compound 3.16 µM
[6] = second compound 0.0316 µM, first compound 10 µM
[7] = second compound 0.1 µM, first compound 0.0316 µM
[8] = second compound 0.1 µM, first compound 0.1 µM
[9] = second compound 0.1 µM, first compound 0.316 µM
[10] = second compound 0.1 µM, first compound 1 µM
[11] = second compound 0.1 µM, first compound 3.16 µM
[12] = second compound 0.1 µM, first compound 10 µM
[13] = second compound 0.316 µM, first compound 0.0316 µM
[14] = second compound 0.316 µM, first compound 0.1 µM
[15] = second compound 0.316 µM, first compound 0.316 µM
[16] = second compound 0.316 µM, first compound 1 µM
[17] = second compound 0.316 µM, first compound 3.16 µM
[18] = second compound 0.316 µM, first compound 10 µM
[19] = second compound 1 µM, first compound 0.0316 µM
[20] = second compound 1 µM, first compound 0.1 µM
[21] = second compound 1 µM, first compound 0.316 µM
[22] = second compound 1 µM, first compound 1 µM
[23] = second compound 1 µM, first compound 3.16 µM
[24] = second compound 1 µM, first compound 10 µM
[25] = second compound 3.16 µM, first compound 0.0316 µM
[26] = second compound 3.16 µM, first compound 0.1 µM
[27] = second compound 3.16 µM, first compound 0.316 µM
[28] = second compound 3.16 µM, first compound 1 µM
[29] = second compound 3.16 µM, first compound 3.16 µM
[30] = second compound 3.16 µM, first compound 10 µM
[31] = second compound 10 µM, first compound 0.0316 µM
[32] = second compound 10 µM, first compound 0.1 µM
[33] = second compound 10 µM, first compound 0.316 µM
[34] = second compound 10 µM, first compound 1 µM
[35] = second compound 10 µM, first compound 3.16 µM
[36] = second compound 10 µM, first compound 10 µM
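Also: viability read 7 days after compound addition.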

Work on `C#Cc1c(F)ccc2cc(O)cc(-c3ncc4c(N5CC6CCC(C5)N6)nc(OCC56CCCN5CC(F)C6)nc4c3F)c12` (centres undefined) + Cc1nc(NC(=O)N2CCCC2C(N)=O)sc1-c1ccnc(C(C)(C)C(F)(F)F)c1 yielded an IC50 (second compound 0.0316 µM) of 403 nM, an IC50 (second compound 0.1 µM) of 467 nM and an IC50 (second compound 0.316 µM) of 183 nM. For the same molecule, the IC50 (second compound 1 µM) was 127 nM, the IC50 (second compound 3.16 µM) was 104 nM and the IC50 (second compound 10 µM) was less than 31.6 nM. The viability, T/C [1] was 80.2%, the viability, T/C [2] was 71.2% and the viability, T/C [3] was 50.4%. It also gave a viability, T/C [4] of 40%, a viability, T/C [5] of 29.8% and a viability, T/C [6] of 23.8%. It also gave a viability, T/C [7] of 84.3%, a viability, T/C [8] of 71.8% and a viability, T/C [9] of 54.1%. It also gave a viability, T/C [10] of 41.4%, a viability, T/C [11] of 25.6% and a viability, T/C [12] of 19.4%. For the same molecule, the viability, T/C [13] was 72.6%, the viability, T/C [14] was 59.2% and the viability, T/C [15] was 41.4%. The viability, T/C [16] was 30.9%, the viability, T/C [17] was 26.3% and the viability, T/C [18] was 15.3%. For the same molecule, the viability, T/C [19] was 67.3%, the viability, T/C [20] was 54.3% and the viability, T/C [21] was 37.2%. For the same molecule, the viability, T/C [22] was 28.3%, the viability, T/C [23] was 21% and the viability, T/C [24] was 13.7%. For the same molecule, the viability, T/C [25] was 67%, the viability, T/C [26] was 51.9% and the viability, T/C [27] was 29.4%. For the same molecule, the viability, T/C [28] was 21.2%, the viability, T/C [29] was 15.8% and the viability, T/C [30] was 11.5%. The viability, T/C [31] was 49.1%, the viability, T/C [32] was 38.7% and the viability, T/C [33] was 25.2%. For the same molecule, the viability, T/C [34] was 18.8%, the viability, T/C [35] was 16.9% and the viability, T/C [36] was 9.04%.

`CC1(C)CCC(Nc2ncc(C(F)(F)F)c(-c3c[nH]c4c(P(C)(C)=O)c(C#N)ccc34)n2)CN1` (centres undefined) + Cc1nc(NC(=O)N2CCCC2C(N)=O)sc1-c1ccnc(C(C)(C)C(F)(F)F)c1 was tested, and the IC50 (second compound 0.0316 µM) was greater than 10000 nM, the IC50 (second compound 0.1 µM) was greater than 10000 nM and the IC50 (second compound 0.316 µM) was greater than 10000 nM. For the same molecule, the IC50 (second compound 1 µM) was greater than 10000 nM, the IC50 (second compound 3.16 µM) was 9360 nM and the IC50 (second compound 10 µM) was 3310 nM. It also gave a viability, T/C [1] of 101%, a viability, T/C [2] of 93.7% and a viability, T/C [3] of 83.2%. It also gave a viability, T/C [4] of 74.1%, a viability, T/C [5] of 70.9% and a viability, T/C [6] of 58.2%. For the same molecule, the viability, T/C [7] was 94.5%, the viability, T/C [8] was 70.2% and the viability, T/C [9] was 70.7%. For the same molecule, the viability, T/C [10] was 70.5%, the viability, T/C [11] was 77.9% and the viability, T/C [12] was 58%. The viability, T/C [13] was 79.6%, the viability, T/C [14] was 79% and the viability, T/C [15] was 80.4%. For the same molecule, the viability, T/C [16] was 67.6%, the viability, T/C [17] was 74.5% and the viability, T/C [18] was 54.6%. For the same molecule, the viability, T/C [19] was 82%, the viability, T/C [20] was 77.6% and the viability, T/C [21] was 70.7%. The viability, T/C [22] was 69.6%, the viability, T/C [23] was 62.3% and the viability, T/C [24] was 52.2%. It also gave a viability, T/C [25] of 75%, a viability, T/C [26] of 65.5% and a viability, T/C [27] of 60.6%. The viability, T/C [28] was 63.2%, the viability, T/C [29] was 61.5% and the viability, T/C [30] was 46%. For the same molecule, the viability, T/C [31] was 54%, the viability, T/C [32] was 50.6% and the viability, T/C [33] was 49.8%. For the same molecule, the viability, T/C [34] was 47%, the viability, T/C [35] was 52.7% and the viability, T/C [36] was 30.4%.
